This note sets out measurements from US7868013B2, “Cycloalkyl substituted pyrimidinediamine compounds and their uses” (Rigel Pharmaceuticals, Inc., priority 2004, dated 2011).

Test [1] deals with HELA (cervical adenocarcinoma). Briefly: In vitro antiproliferation assay, HELA cells. The class given is cell-based. The following applies: Homo sapiens, HeLa. The procedure: (§1) Certain compounds were tested against other cell types for their ability to inhibit proliferation in standard antiproliferation assays.
The subject of test [2] is H1299 (non-small cell lung carcinoma). As to the kind of experiment: In vitro antiproliferation assay, H1299 cells (TABLE 1 6 point assay; TABLE 2). The class given is cell-based. As to conditions: Homo sapiens. The procedure:
as §1

Test [3] has as its system THP-1 (monocyte acute monocytic leukemia). Briefly: In vitro antiproliferation assay, THP-1 cells. It counts as cell-based. The following applies: Homo sapiens. The procedure: as §1
The subject of test [4] is ASPC-1 (pancreatic adenocarcinoma). Briefly: In vitro antiproliferation assay, ASPC-1 cells. The class given is cell-based. The following applies: Homo sapiens, ASPC1. The procedure:
as §1

Test [5] concerns H1155 (non-small cell lung carcinoma). Briefly: In vitro antiproliferation assay, H1155 cells. The class given is cell-based. As to conditions: Homo sapiens, NCI-H1155. The procedure: as §1
Test [6] deals with K562 (bone marrow chronic myelogenous leukemia). Briefly: In vitro antiproliferation assay, K562 cells. The following applies: Homo sapiens. It counts as cell-based. The procedure: as §1
Test [7] has as its system L1210 (mouse lymphocytic leukemia). Briefly: In vitro antiproliferation assay, L1210 cells. It counts as cell-based. The following applies: Mus musculus. The procedure: as §1
In test [8] the test system is MiaPaCa-2 (pancreatic carcinoma). Briefly: In vitro antiproliferation assay, MiaPaCa-2 cells. It counts as cell-based. The following applies: Homo sapiens, MIA PaCa-2; Miapaca2; read-out: In Vitro IC50. The procedure: (§2) Cis racemic Compound 15, (1S,2R) enantiomeric Compound 15a and […] enantiomeric Compound 15b were also tested against DU145 (prostate carcinoma), HCT116 (colorectal carcinoma) and MiaPaCa-2 (pancreatic carcinoma) cell lines.
as §1

Test [9] concerns DU145 (prostate carcinoma). Briefly: In vitro antiproliferation assay, DU145 cells. It counts as cell-based. The following applies: Homo sapiens, DU-145; DU145; read-out: In Vitro IC50. The procedure: as §2, §1
Test [10] concerns MOLT3 (T lymphoblast acute lymphoblastic leukemia). As to the kind of experiment: In vitro antiproliferation assay, MOLT3 cells. It counts as cell-based. The following applies: Homo sapiens, MOLT-3. The procedure:
as §1

The target of test [11] is T1, Aurora kinase-B (Homo sapiens, UniProt Q96GD4).
T1 construct: endogenous in cells; host or cells: A549 cells
As to the kind of experiment: Functional cellular assay of Aurora kinase-B: phosphorylation of histone H3 in A549 cells. It counts as cell-based. As to conditions: A549 cells, phospho-histone H3; read-out: IC50 of Aurora kinase-B inhibition. The procedure:
Enantiomers E1 and E2 (Compounds 60a and 60b, respectively) were tested for their ability to inhibit Aurora kinase-B in a functional cellular assay involving phosphorylation of its substrate, histone H3. For the assay, A549 cells were seeded into the wells of a microtiter tray (5000 cells/well in 100 μl F12K media) late in the afternoon on Day 1. The cells were grown overnight (37° C., 5% CO2) On Day 2, 50 μl nocodazole (1 μM in media) was added to each well, giving a final concentration of 333 nM. Cells were grown for an additional 18 hrs under the same conditions.
On Day 3, 50 μl aliguots of varying concentrations of test compound were added to the wells Test compounds were prepared by 2-fold serial dilution of a […] stock (in DMSO). The diluted compounds in DMSO were then further diluted 1:50 with media to yield a final solution containing 4× test compound, 98% media, 2% DMSO. After incubation, the media/test compound was washed and the cells fixed with 2% paraformaldehyde (in Dulbecco's phosphate buffered saline “DPBS”; 25 μl per well; […] incubation). […] The cells were then stained with a secondary antibody labeled with a fluorescent dye (secondary antibody donkey anti-mouse AlexFluor 488 (Invitrogen Molecular Probes; 1:2000) and DAPI (1:15,000 of 1 mg/ml stock) for 1 hr at room temperature, washed three times with DPBS (200 μl/well) and stored under DPBS (100 μl/well) at 4° C. until ready for analysis.
A Zeiss Axiovert S100 inverted fluorescent microscope with a Plan-NEOFLUAR 10× objective, a Hamamatsu Lightningcure 200 Mercury-Xenon light source and an Omega Optical XF57 quad filter was used for all data collection. […] Images were captured and analyzed in 12-bit format using segmentation and morphological routines contained in the Image Pro software package. Identified nuclei were counted and pixel data for each cell along with experimental conditions was stored in a database using MySQL 4.0.14. […]
For phospho-histone H3 analysis the data is converted to Facs files and analysed using FlowJo. […]

Test [12] relates to COLO 205 (colorectal adenocarcinoma). Briefly: In vitro antiproliferation assay, COLO 205 cells. The class given is cell-based. As to conditions: Homo sapiens, COLO 205; Colo205. The procedure: as §1
Test [13] deals with HL160 (promyeloblast promyelocytic leukemia). As to the kind of experiment: In vitro antiproliferation assay, HL160 cells. The class given is cell-based. The procedure: as §1
The test system of test [14] is MOLT4 (T lymphoblast acute lymphoblastic leukemia). As to the kind of experiment: In vitro antiproliferation assay, MOLT4 cells. The following applies: Homo sapiens, MOLT-4. The class given is cell-based. The procedure: as §1
In test [15] the test system is PC3 (prostate adenocarcinoma). As to the kind of experiment: In vitro antiproliferation assay, PC3 cells. The class given is cell-based. As to conditions: Homo sapiens, PC-3. The procedure:
as §1

The subject of test [16] is TOV-21G (ovarian clear cell carcinoma). Briefly: In vitro antiproliferation assay, TOV-21G cells. The class given is cell-based. The following applies: Homo sapiens, TOV21G; TOV-G21. The procedure:
as §1

In test [17] the test system is U937 (histiocytic lymphoma). As to the kind of experiment: In vitro antiproliferation assay, U937 cells. It counts as cell-based. The following applies: Homo sapiens, U-937. The procedure: as §1
Test [18] concerns SU86.86 (pancreatic carcinoma). As to the kind of experiment: In vitro antiproliferation assay, SU86.86 cells. The class given is cell-based. As to conditions: Homo sapiens, SU.86.86. The procedure: as §1
The test system of test [19] is SW620 (colorectal adenocarcinoma). Briefly: In vitro antiproliferation assay, SW620 cells. As to conditions: Homo sapiens, SW-620. It counts as cell-based. The procedure: as §1
Test [20] concerns SK-OV-3 (ovarian adenocarcinoma). As to the kind of experiment: In vitro antiproliferation assay, SK-OV-3 cells. As to conditions: Homo sapiens, SKOV3. It counts as cell-based. The procedure:
as §1

Test [21] relates to U2OS (bone osteosarcoma). As to the kind of experiment: In vitro antiproliferation assay, U2OS cells. The class given is cell-based. As to conditions: Homo sapiens, U2OS; U20S. The procedure:
as §1

The subject of test [22] is H7299. As to the kind of experiment: In vitro antiproliferation assay, H7299 cells. It counts as cell-based. The procedure: as §1
Test [23] deals with CaOV-3 (ovarian adenocarcinoma). Briefly: In vitro antiproliferation assay, CaOV-3 cells. The class given is cell-based. The following applies: Homo sapiens. The procedure:
as §1

In test [24] the test system is A549 (lung carcinoma). Briefly: In vitro antiproliferation assay, A549 cells (TABLE 1 6 point assay; TABLE 2). It counts as cell-based. As to conditions: Homo sapiens. The procedure: as §1
In test [25] the test system is BXPC-3 (pabcreatic adenocarcinoma). Briefly: In vitro antiproliferation assay, BXPC-3 cells. The class given is cell-based. The following applies: Homo sapiens. The procedure:
as §1

Test [26] concerns MiaPaCa tumors. As to the kind of experiment: Xenograft regression model, MiaPaCa tumors. The class given is in vivo, SCID mice. The following applies: 10 mg/kg/day oral or i.p., similar to taxol.
Method: (§3) When palpable tumors appeared and were of a preselected volume (approx. 100 mm3 for treatment model; >300 mm3 for regression model), the mice were administered test compounds in the amounts and according to the dosing regimens specified in TABLE 3 (treatment protocol) and TABLE 4 (regression protocol), below.
In test [27] the test system is Colo205 tumors. Briefly: Xenograft regression model, Colo205 tumors. It counts as in vivo, SCID mice. As to conditions: 10 mg/kg/day oral.
Method: as §3
In test [28] the test system is H460 (large cell lung carcinoma). Briefly: In vitro antiproliferation assay, H460 cells. The following applies: Homo sapiens, NCI-H460. The class given is cell-based. The procedure: as §1
For test [29], the system named is Colo205 tumors. As to the kind of experiment: Xenograft treatment model, Colo205 tumors. As to conditions: daily and pulsed dosing regimens, all dosage levels tested. The class given is in vivo, SCID mice.
Method: as §3
Test [30] has as its system A549 tumors. As to the kind of experiment: Xenograft treatment model, A549 tumors. As to conditions: 5 days on/2 days off, 10 mg/kg qd, p>0.05. It counts as in vivo, SCID mice.
Method: as §3
Where [31] appears, read: NCI-H1299, 6 point assay, H1299 cells, read-out: IC50, H1299 cells.
Where [32] appears, read: NCI-H1299, H1299, read-out: In Vitro IC50.
Where [33] appears, read: A549, 6 point assay, A549 cells, read-out: IC50, A549 cells.
The mark [34] stands for this setting: A549, A549, read-out: In Vitro IC50.

Where a name gives a salt, the structure may show the parent alone. Read-outs that look alike come from different tables or passages of the source. Bounds are passed on as bounds.

T1 sequence (Q96GD4 whole entry): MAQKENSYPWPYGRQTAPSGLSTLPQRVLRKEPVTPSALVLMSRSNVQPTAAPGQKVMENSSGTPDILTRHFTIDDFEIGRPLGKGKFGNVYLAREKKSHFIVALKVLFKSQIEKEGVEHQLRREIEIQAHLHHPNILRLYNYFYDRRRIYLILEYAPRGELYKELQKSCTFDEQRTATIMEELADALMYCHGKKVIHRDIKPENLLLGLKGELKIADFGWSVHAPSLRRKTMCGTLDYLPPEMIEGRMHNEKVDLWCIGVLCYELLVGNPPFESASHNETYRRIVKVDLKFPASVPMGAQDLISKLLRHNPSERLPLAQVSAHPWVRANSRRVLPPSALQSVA

Take `Cc1cc(Nc2ncc(F)c(N[C@H]3[C@@H](C(N)=O)[C@@H]4C=C[C@H]3C4)n2)ccc1N1CCN(C)CC1` (single isomer, unassigned) [Compound 60a]: the IC50 is at most 10 nM in test [1]; at most 100 nM in test [2] (setting [31]); at most 10 nM in [2] (setting [32]); at most 1000 nM in test [3]; at most 10 nM in test [4]; at most 10 nM in test [5]. Also, the IC50 is at most 1000 nM in [6]; at most 20 nM in [7]; at most 10 nM in [8]; at most 20 nM in test [9]; at most 10 nM in test [10]; around 7 nM in [11]. In addition, the IC50 in [12], in test [13], in test [14], in test [15], in test [16] and in test [17] was at most 10 nM each time. Also, the IC50 in test [18] was at most 20 nM; in test [19], at most 20 nM; in test [20] it was at most 20 nM; in test [21], at most 10 nM; in test [22], at most 20 nM; in test [23] it was at most 10 nM. In addition, the results for the 50% inhibitory concentration (IC50) in [24] (setting [33]), in test [24] (setting [34]) and in test [25] were at most 100 nM, at most 10 nM and at most 10 nM, respectively.
As for `Cc1cc(Nc2ncc(F)c(N[C@H]3[C@@H](C(N)=O)[C@@H]4C=C[C@H]3C4)n2)ccc1N1CCN(C)CC1` [compound 234, (1R,2R,3S,4S)—N4-(3-Aminocarbonylbicyclo[2.2.1]hept-5-en-2-yl)-5-fluoro-N2-[3-methyl-4-(4-methylpiperazin-1-yl)phenyl]-2,4-pyrimidinediamine Hydrogen Chloride Salt], the IC50 was at most 10 nM in [1]; 100 to 1000 nM in test [2] (setting [31]); at most 1000 nM in test [2] (setting [32]); at most 10 nM in test [8]; at most 1000 nM in test [9]; at most 10 nM in [28]. Further, the IC50 in [12] is at most 10 nM; in test [22], at most 1000 nM; in test [24] (setting [33]) it was at most 100 nM; in [24] (setting [34]), at most 10 nM. Further, the “Reduction in tumor growth rate” value in test [26] and in test [27] was “Significant reductions in tumor growth rate” each time. Moreover, in test [29], the “Reduction in tumor growth rate as compared to a vehicle control” value was “significant (p<0.050) reductions in tumor growth rate”. The “Reduction in mean tumor volume” value in test [30] was around 40%.
